Reference: patent US20240217988A1, “ESTROGEN RECEPTOR ANTAGONIST” (Shenzhen Forward Pharmaceuticals Co., Limited, priority 2021, published 2024)

Tests used:
GST-ERα-LBD = GST-ERα-LBD (Homo sapiens (Human), UniProt P03372); test: ERα TR-FRET test; assay type: biochemical; settings: estradiol final concentration 1.5 nM, biotin-SRC2
Method: 1× Tris-HCl (Sigma, PHG0002) protein buffer was prepared and mixed for later use. The compound to be detected was prepared into a stock solution with a concentration of 2 mM and then subjected to serial 3-fold gradient dilution, resulting in a total of 10 concentrations.
Preparation of 1× protein mixed solution: firstly, 2× GST-ERα-LBD (Invitrogen, A15677)/MAb anti-GST-Eu (Cisbio, 61GSTKLA) mixed solution was prepared according to the following table.
2× biotin-SRC2/streptavidin-XL665 (Cisbio, 610SAXLA) mixed solution was prepared.
The above 2× GST-NR-LBD/ MAb anti-GST-Eu solution and 2× biotin-SRC2/streptavidin-XL665 solution were uniformly mixed at a volume ratio of 1:1; and the 1× protein mixed solution was added to each well of a 384-well plate, with 20 μL being added per well, the 384-well plate was put into a centrifuge and centrifuged at room temperature at 1000 rpm for 10 seconds, and it was taken out, then left to stand at room temperature for 3 h, and then read by EnVision multifunctional microplate reader.
The inhibition rate was calculated according to the following formula: […]
The data were imported into Graphpad Prism, and Log(agonist) vs. response-variable slope was used for curve fitting.
Y=Bottom+(Top−Bottom)/(1+10^((LogEC50−X)*HillSlope)) Fitting formula

[1] = tested on: Human breast cancer cells MCF-7; test: MCF-7 cell proliferation experiment; assay type: cell-based; settings: Homo sapiens, MCF7; MCF-7 cells, 72 hours, Cell Titer-Glo
Method: Test Example 2: MCF-7 Cell Proliferation Experiment
Human breast cancer cells MCF-7 (HTB-22, purchased from ATCC) were inoculated into a 96-well plate. The culture medium was an MEM (Hyclone, SH30024.01B) culture medium containing 10% of FBS (Gibco, 10099-141), 1% of pyruvic acid (Sigma, S8636), and 1% of nonessential amino acid (Sigma, M7145), and the inoculation density was 4,000 cells/well. The cells were cultured at 37° C., 5% CO2. The compound was prepared into a 20 mM stock solution, which was subjected to gradient dilution to a final concentration of […] with 100% DMSO (Sigma, D2650) and then diluted 20 folds with a culture medium containing 2% of FBS. After 24 hours of culture, the culture medium was removed, 90 μL of a culture medium containing 2% of FBS and 10 μL of drug were added to each well, while 10 μL of DMSO was added to the control group, and they were gently shaken and mixed. The blank group only contained 100 μL of 2% FBS culture medium. They were placed in an incubator and cultured at 37° C., 5% CO2. After 72 hours, 50 μL of mixed Cell Titer-Glo (Promega, G7571) was added. They were shaken and mixed uniformly, and placed at room temperature for 10 min. The chemiluminescence signal value was determined. The negative control was 0.5% DMSO well.

ERα = ERα (Homo sapiens (Human), UniProt P03372); test: Degradation effect of compound on ERα (ERα DuoSet IC ELISA in MCF-7 cells); assay type: cell-based; settings: 24 h with compound, read-out: IC50 value of ERα degradation by compound
Method: In this test example, ERα DuoSet IC ELISA Kit (R&D, DYC5715) was used to detect the degradation effect of the compound on ERα. On the first day of the experiment, human breast cancer cells MCF-7 (the source was as above) were inoculated into a 24-well plate. The culture medium was an MEM culture medium containing 10% of activated-carbon-treated FBS (Tocyto, UT61204), 1% of pyruvic acid and 1% of nonessential amino acid. The inoculation density was 150,000 cells/well. The cells were cultured at 37° C., 5% CO2 for 24 h.
On the second day of the experiment, the compound to be tested was diluted in gradient and added to a 24-well plate containing cells. The cells were cultured for 24 h at 37° C., 5% CO2. ERα capture antibody was diluted to 1 μg/ml with PBS (Corning, 21-040-CVR) and added to a 96-well plate at 100 μL/well, and the plate was […] coated overnight at room temperature.
On the third day of the experiment, the coated 96-well plate was washed three times with PBS, 300 μL of a blocking solution (R&D, DY995) was added to each well, and the plate was blocked at room temperature for 1 h. The 24-well plate was washed once with PBS, and the residual liquid was sucked off. […] The diluted cell lysate was taken and added to the blocked 96-well plate, with 100 μL per well, and incubated at room temperature for 2 h. The plate was washed three times with a washing solution (R&D, WA126), and a primary antibody was then added. After incubation for 1 h, the 96-well plate was washed four times, a secondary antibody was added, and incubation was carried out at room temperature in the dark for 30 min. The plate was washed four times with the washing solution, and TMB (R&D, DY999) was added. After 15 minutes of development, the reaction was terminated with a stop solution (R&D, DY994), and the light absorption at 450 nm was read.

[2] = Stability in human liver microsomes in vitro; assay type: in vitro ADME; settings: human liver microsomes
Method: Test Example 4: Test for Stability in Human Liver Microsomes In Vitro Eight 96-well incubation plates were prepared and named [NT], Blank60 and NCF60, respectively. […] No test compound or control compound was added to Blank60 plate, and samples were taken after incubation for 60 min. NCF60 plate was incubated with a potassium phosphate buffer instead of an NADPH regeneration system solution (Sigma, N0505) for 60 min. […] Only the microsome working solution was added to Blank60 plate, and the incubation plates Blank60, T5, T15, T30, T45 and T60 except T0 and NCF60 were then placed in a water bath at 37° C. and pre-incubated for about 10 min. To the samples of T0 plate, 600 μL of a stop solution (acetonitrile:methanol (95:5, v/v) solution containing 100 ng/mL of tolbutamide (Sigma, T0891)) was added first, and the NADPH regeneration system working solution was then added. 98 μL of a potassium phosphate buffer was added to each well of NCF60 plate and incubated for 60 min. After the pre-incubation in the incubation plates Blank60, T5, T15, T30, T45 and T60 was completed, 98 μL of the NADPH regeneration system working solution was added to each sample well to initiate the reaction. After an appropriate incubation time (such as 5, 15, 30, 45 and 60 min), 600 μL of a stop solution was added to each sample well and the control sample well in Blank60, […] the reaction. All the sample plates were shaken uniformly and centrifuged at 3220×g for 20 min. 200 μL of test sample supernatant was separately taken and diluted in 200 μL of an aqueous solution containing 0.3% formic acid for LC-MS/MS analysis, and 100 μL of control sample supernatant was taken and diluted in 300 μL of pure water for LC-MS/MS analysis. Calculation was performed according to the following formula: [formula] [formula] [formula] [formula] [formula] [formula]

ERα, sequence (P03372 whole entry): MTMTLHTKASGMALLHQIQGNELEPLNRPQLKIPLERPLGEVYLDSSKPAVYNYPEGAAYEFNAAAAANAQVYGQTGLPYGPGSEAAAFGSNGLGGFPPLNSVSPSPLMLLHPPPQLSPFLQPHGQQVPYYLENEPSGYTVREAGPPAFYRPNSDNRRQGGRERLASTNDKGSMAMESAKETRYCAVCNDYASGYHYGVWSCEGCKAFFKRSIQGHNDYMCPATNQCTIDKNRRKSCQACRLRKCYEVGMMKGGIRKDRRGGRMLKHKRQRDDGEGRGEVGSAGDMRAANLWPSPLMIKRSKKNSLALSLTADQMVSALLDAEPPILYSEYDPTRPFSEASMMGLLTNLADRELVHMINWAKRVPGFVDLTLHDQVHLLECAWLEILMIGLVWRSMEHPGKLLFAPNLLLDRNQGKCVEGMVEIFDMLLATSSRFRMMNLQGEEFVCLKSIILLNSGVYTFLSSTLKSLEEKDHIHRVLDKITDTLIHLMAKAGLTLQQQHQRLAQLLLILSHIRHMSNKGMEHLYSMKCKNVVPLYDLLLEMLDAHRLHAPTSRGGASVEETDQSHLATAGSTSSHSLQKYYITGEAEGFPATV
GST-ERα-LBD, sequence (P03372 311-547): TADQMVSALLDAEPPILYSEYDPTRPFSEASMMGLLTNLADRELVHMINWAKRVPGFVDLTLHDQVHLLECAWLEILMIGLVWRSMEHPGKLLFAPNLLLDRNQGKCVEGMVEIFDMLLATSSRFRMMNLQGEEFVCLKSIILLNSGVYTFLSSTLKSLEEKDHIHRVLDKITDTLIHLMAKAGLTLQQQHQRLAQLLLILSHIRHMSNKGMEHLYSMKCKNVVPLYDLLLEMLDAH

Work on COc1cc(NC2CN(CCCF)C2)cc(F)c1[C@@H]1c2ccc3[nH]c(=O)oc3c2C[C@@H](C)N1CC(F)(F)F [Example 34, (6S,8R)-6-(4-((1-(3-fluoropropyl)azetidin-3-yl)amino)-2-methoxy-6-fluoro-phenyl)-8-methyl-7-(2,2,2-trifluoroethyl)-6,7,8,9-6,7,8,9-tetrahydrooxazolo[5,4-f]isoquinolin-2(3H)-one] yielded an IC50 (GST-ERα-LBD) of 19.4 nM, an IC50 [1] of 0.19 nM and a DC50 (ERα) of 0.24 nM. The half-life ([2]; microsome protein 1 mg/mL working solution, NADPH) was 1.78 h, the CLint scaled ([2]; scaled to liver) was 8.9 mL/min/kg and the microsomal CLint ([2]; read-out: CLint(mic)) was 10.1 µL/min/mg.
